Experimental data as given in PubChem BioAssay AID248 (DTP/NCI, 2004).
“And” between values parts separate entries of the source, which are not always exact repeats. Identical values can stand only once. Inconclusive results and toxic doses are left out. Cut-off read from the data, not from the text of the source: active = T/C of 150% or more; inactive = T/C below 125%.

System: L1210 leukemia ip in BDF1 mice, survival T/C
Assay: NCI In Vivo Anticancer Drug Screen. Data for tumor model L1210 Leukemia (intraperitoneal) in B6D2F1 (BDF1) mice
Details: higher = longer survival
How it was run: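 In this screen, tumor-bearing mice given compound are compared to those given vehicle, and their survival values are reported as a treated-to-control quotient.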

Measured: T/C

CC[C@]1(O)C[C@H]2CN(CCc3c([nH]c4ccccc34)[C@@](C(=O)OC)(c3cc4c(cc3OC)N(C=O)[C@H]3[C@@](O)(C(=O)OC)[C@H](OC(C)=O)[C@]5(CC)C=CCN6CC[C@]43[C@@H]65)C2)C1
inactive: endpoint: mean survival time, dose: 0.03 mg/kg/injection, schedule: Q01DX015 (ip), vehicle: saline 108 % of control | endpoint: mean survival time, dose: 0.03 mg/kg/injection, schedule: Q03HX032 (ip), vehicle: saline 107 % of control | endpoint: mean survival time, dose: 0.03 mg/kg/injection, schedule: Q## X032 (ip), vehicle: saline 107 % of control | endpoint: mean survival time, dose: 0.04 mg/kg/injection, schedule: Q03HX032 (ip), vehicle: saline 109 % of control | endpoint: mean survival time, dose: 0.04 mg/kg/injection, schedule: Q## X032 (ip), vehicle: saline 109 % of control | endpoint: mean survival time, dose: 0.05 mg/kg/injection, schedule: Q01DX005 (ip), vehicle: saline 101 % of control | endpoint: mean survival time, dose: 0.05 mg/kg/injection, schedule: Q01DX005 (iv), vehicle: saline 101 % of control | endpoint: mean survival time, dose: 0.05 mg/kg/injection, schedule: Q01DX015 (ip), vehicle: saline 108 % of control | endpoint: mean survival time, dose: 0.06 mg/kg/injection, schedule: Q01DX Z (ip), vehicle: water 105 % of control | endpoint: mean survival time, dose: 0.06 mg/kg/injection, schedule: Q## X032 (ip), vehicle: saline 113 % of control | endpoint: mean survival time, dose: 0.07 mg/kg/injection, schedule: Q03HX032 (ip), vehicle: saline 113 % of control | endpoint: mean survival time, dose: 0.08 mg/kg/injection, schedule: Q04DX002 (ip), vehicle: saline 102 % of control and 104 % of control | endpoint: mean survival time, dose: 0.1 mg/kg/injection, schedule: Q01DX005 (ip), vehicle: saline 116 % of control | endpoint: mean survival time, dose: 0.1 mg/kg/injection, schedule: Q01DX005 (iv), vehicle: saline 100 % of control | endpoint: mean survival time, dose: 0.12 mg/kg/injection, schedule: Q01DX Z (ip), vehicle: water 108 % of control | endpoint: mean survival time, dose: 0.15 mg/kg/injection, schedule: Q01DX015 (ip), vehicle: saline 114 % of control | endpoint: mean survival time, dose: 0.15 mg/kg/injection, schedule: Q04DX002 (ip), vehicle: saline 100 % of control and 105 % of control | endpoint: mean survival time, dose: 0.2 mg/kg/injection, schedule: Q01DX005 (ip), vehicle: saline 115 % of control | endpoint: mean survival time, dose: 0.2 mg/kg/injection, schedule: Q01DX005 (iv), vehicle: saline 106 % of control | endpoint: mean survival time, dose: 0.2 mg/kg/injection, schedule: Q04DX002 (ip), vehicle: saline 104 % of control | endpoint: mean survival time, dose: 0.23 mg/kg/injection, schedule: Q04DX003 (ip), vehicle: saline 110 % of control | endpoint: mean survival time, dose: 0.25 mg/kg/injection, schedule: Q01DX Z (ip), vehicle: water 115 % of control | endpoint: mean survival time, dose: 0.39 mg/kg/injection, schedule: Q04DX002 (ip), vehicle: saline 110 % of control | endpoint: mean survival time, dose: 0.4 mg/kg/injection, schedule: Q01DX005 (ip), vehicle: saline 105 % of control | endpoint: mean survival time, dose: 0.4 mg/kg/injection, schedule: Q01DX005 (iv), vehicle: saline 100 % of control | endpoint: mean survival time, dose: 0.5 mg/kg/injection, schedule: Q01DX009 (ip), vehicle: saline 105 % of control | endpoint: mean survival time, dose: 0.5 mg/kg/injection, schedule: Q01DX Z (ip), vehicle: saline 97 % of control | endpoint: mean survival time, dose: 0.5 mg/kg/injection, schedule: Q01DX Z (ip), vehicle: water 108 % of control | endpoint: mean survival time, dose: 0.5 mg/kg/injection, schedule: Q04DX004 (ip), vehicle: saline 110 % of control | endpoint: mean survival time, dose: 0.75 mg/kg/injection, schedule: Q01DX015 (ip), vehicle: saline 113 % of control | endpoint: mean survival time, dose: 0.8 mg/kg/injection, schedule: Q01DX001 (ip), vehicle: saline 115 % of control | endpoint: mean survival time, dose: 0.8 mg/kg/injection, schedule: Q01DX005 (iv), vehicle: saline 116 % of control | endpoint: mean survival time, dose: 0.8 mg/kg/injection, schedule: Q01DX015 (ip), vehicle: saline 108 % of control | endpoint: mean survival time, dose: 1.0 mg/kg/injection, schedule: Q01DX Z (ip), vehicle: water 95 % of control and 99 % of control | endpoint: mean survival time, dose: 1.0 mg/kg/injection, schedule: Q04DX004 (ip), vehicle: saline 115 % of control | endpoint: mean survival time, dose: 1.12 mg/kg/injection, schedule: Q01DX015 (ip), vehicle: saline 105 % of control | endpoint: mean survival time, dose: 1.5 mg/kg/injection, schedule: Q01DX001 (ip), vehicle: water 109 % of control and 112 % of control | endpoint: mean survival time, dose: 1.5 mg/kg/injection, schedule: Q04DX002 (ip), vehicle: saline 116 % of control | endpoint: mean survival time, dose: 6.0 mg/kg/injection, schedule: Q01DX001 (ip), vehicle: water 107 % of control | endpoint: mean survival time, dose: 3.2 micrograms/kg/injection, schedule: Q01DX015 (ip), vehicle: saline 94 % of control | endpoint: mean survival time, dose: 6.3 micrograms/kg/injection, schedule: Q01DX015 (ip), vehicle: saline 97 % of control | endpoint: mean survival time, dose: 11.0 micrograms/kg/injection, schedule: Q01DX009 (ip), vehicle: saline 102 % of control and 109 % of control | endpoint: mean survival time, dose: 12.5 micrograms/kg/injection, schedule: Q01DX015 (ip), vehicle: saline 98 % of control | endpoint: mean survival time, dose: 15.6 micrograms/kg/injection, schedule: Q03HX008 (ip), vehicle: clinical formulation 104 % of control | endpoint: mean survival time, dose: 15.6 micrograms/kg/injection, schedule: Q03HX016 (ip), vehicle: clinical formulation 100 % of control | endpoint: mean survival time, dose: 15.6 micrograms/kg/injection, schedule: Q03HX024 (ip), vehicle: clinical formulation 102 % of control | endpoint: mean survival time, dose: 23.0 micrograms/kg/injection, schedule: Q01DX009 (ip), vehicle: saline 98 % of control and 100 % of control | endpoint: mean survival time, dose: 25.0 micrograms/kg/injection, schedule: Q01DX015 (ip), vehicle: saline 112 % of control | endpoint: mean survival time, dose: 31.2 micrograms/kg/injection, schedule: Q01DX009 (ip), vehicle: clinical formulation 102 % of control | endpoint: mean survival time, dose: 31.2 micrograms/kg/injection, schedule: Q03HX008 (ip), vehicle: clinical formulation 106 % of control | endpoint: mean survival time, dose: 31.2 micrograms/kg/injection, schedule: Q03HX016 (ip), vehicle: clinical formulation 105 % of control | endpoint: mean survival time, dose: 47.0 micrograms/kg/injection, schedule: Q01DX009 (ip), vehicle: saline 109 % of control and 114 % of control | endpoint: mean survival time, dose: 50.0 micrograms/kg/injection, schedule: Q01DX015 (ip), vehicle: saline 113 % of control | endpoint: mean survival time, dose: 62.5 micrograms/kg/injection, schedule: Q03HX008 (ip), vehicle: clinical formulation 112 % of control | endpoint: mean survival time, dose: 62.5 micrograms/kg/injection, schedule: Q03HX016 (ip), vehicle: clinical formulation 105 % of control | endpoint: mean survival time, dose: 62.5 micrograms/kg/injection, schedule: Q04DX003 (ip), vehicle: clinical formulation 113 % of control | endpoint: mean survival time, dose: 100.0 micrograms/kg/injection, schedule: Q01DX015 (ip), vehicle: saline 103 % of control | endpoint: mean survival time, dose: 125.0 micrograms/kg/injection, schedule: Q01DX001 (ip), vehicle: clinical formulation 104 % of control | endpoint: mean survival time, dose: 125.0 micrograms/kg/injection, schedule: Q04DX003 (ip), vehicle: clinical formulation 115 % of control | endpoint: mean survival time, dose: 125.0 micrograms/kg/injection, schedule: Q08DX002 (ip), vehicle: clinical formulation 101 % of control | endpoint: mean survival time, dose: 200.0 micrograms/kg/injection, schedule: Q01DX015 (ip), vehicle: saline 115 % of control | endpoint: mean survival time, dose: 216.0 micrograms/kg/injection, schedule: Q04DX003 (ip), vehicle: saline 116 % of control | endpoint: mean survival time, dose: 250.0 micrograms/kg/injection, schedule: Q01DX001 (ip), vehicle: clinical formulation 106 % of control | endpoint: mean survival time, dose: 250.0 micrograms/kg/injection, schedule: Q03HX024 (ip), vehicle: clinical formulation 98 % of control | endpoint: mean survival time, dose: 250.0 micrograms/kg/injection, schedule: Q04DX003 (ip), vehicle: clinical formulation 116 % of control | endpoint: mean survival time, dose: 250.0 micrograms/kg/injection, schedule: Q08DX002 (ip), vehicle: clinical formulation 108 % of control | endpoint: mean survival time, dose: 500.0 micrograms/kg/injection, schedule: Q01DX001 (ip), vehicle: clinical formulation 113 % of control | endpoint: mean survival time, dose: 500.0 micrograms/kg/injection, schedule: Q08DX002 (ip), vehicle: clinical formulation 106 % of control | endpoint: mean survival time, dose: 600.0 micrograms/kg/injection, schedule: Q04DX003 (ip), vehicle: saline 112 % of control | endpoint: mean survival time, dose: 740.0 micrograms/kg/injection, schedule: Q01DX009 (ip), vehicle: saline 92 % of control and 102 % of control | endpoint: mean survival time, dose: 1000.0 micrograms/kg/injection, schedule: Q08DX002 (ip), vehicle: clinical formulation 108 % of control | endpoint: mean survival time, dose: 2000.0 micrograms/kg/injection, schedule: Q01DX001 (ip), vehicle: clinical formulation 116 % of control | endpoint: median survival time, dose: 0.02 mg/kg/injection, schedule: Q01DX001 (ip), vehicle: water 103 % of control | endpoint: median survival time, dose: 0.03 mg/kg/injection, schedule: Q01DX001 (ip), vehicle: water 103 % of control | endpoint: median survival time, dose: 0.05 mg/kg/injection, schedule: Q01DX001 (ip), vehicle: water 108 % of control | endpoint: median survival time, dose: 0.14 mg/kg/injection, schedule: Q01DX009 (ip), vehicle: water 114 % of control | endpoint: median survival time, dose: 0.25 mg/kg/injection, schedule: Q01DX002 (ip), vehicle: water 110 % of control | endpoint: median survival time, dose: 0.25 mg/kg/injection, schedule: Q01DX009 (ip), vehicle: water 115 % of control | endpoint: median survival time, dose: 0.4 mg/kg/injection, schedule: Q01DX001 (ip), vehicle: saline 111 % of control | endpoint: median survival time, dose: 0.4 mg/kg/injection, schedule: Q01DX009 (ip), vehicle: water 100 % of control and 103 % of control | endpoint: median survival time, dose: 0.5 mg/kg/injection, schedule: Q01DX001 (ip), vehicle: water 99 % of control and 100 % of control | endpoint: median survival time, dose: 1.0 mg/kg/injection, schedule: Q01DX001 (ip), vehicle: water 102 % of control | endpoint: median survival time, dose: 2.0 mg/kg/injection, schedule: Q01DX001 (ip), vehicle: water 116 % of control | endpoint: median survival time, dose: 2.0 mg/kg/injection, schedule: Q01DX002 (ip), vehicle: water 108 % of control
